Reference: patent US20240131032A1, “AN ACTIVITY-GUIDED MAP OF ELECTROPHILE-CYSTEINE INTERACTIONS IN PRIMARY HUMAN IMMUNE CELLS” (The Scripps Research Institute, priority 2019, published 2024)

Key:
[1] = tested on: NuRD complex members (MBD2, MBD3, GATAD2B); assay: Cysteine reactivity profiles of NuRD complex members in treated T cells; type: binding, human; settings: 3 h treatment
Procedure: (§1) FIG. 7B is a scatter plot representation of protein abundance changes caused by BPK-25 (10 μM, 24 h) in two independent replicate experiments, with decreases in NuRD complex components highlighted in red. FIG. 7C is a heatmap of top proteins with decreased abundance in BPK-25-treated T cells showing that the subset of these proteins in the NuRD complex (asterisks) were largely unaltered by other active compounds and blocked in their degradation by co-treatment with the proteasome inhibitor MG132. […] FIG. 7E is a bar graph […] showing time-dependent reductions in NuRD complex members in human T cells treated with BPK-25 (10 μM). Left, representative western blots. Right, quantification of changes in protein. […]
(§2) At individual TMT experiment level, the following filters were applied to remove low-quality peptides: removal of non-unique peptides; removal of half-tryptic peptides; removal of peptides with more than one internal miscleaved site; removal of peptides with low (<10,000) sum of reporter ion intensities for control channels, and peptides with high variation between the replicate control channels (coefficient of variance >0.5). R values (compound-treated vs. DMSO-treated) for each peptide entry were calculated using the reporter ion intensities of DMSO and compound treated TMT channels for each treatment group with a maximum ratio cap of 20. […]

[2] = biological target: T1, NuRD complex members (MBD2, MBD3, GATAD2B) (Homo sapiens, UniProt Q8WXI9); assay: as above; type: binding
T1 construct: endogenous in cells; host or cells: primary human T cells, 3 h treatment
Procedure: as §1, §2

T1 sequence (Q8WXI9 whole entry, one chain of several): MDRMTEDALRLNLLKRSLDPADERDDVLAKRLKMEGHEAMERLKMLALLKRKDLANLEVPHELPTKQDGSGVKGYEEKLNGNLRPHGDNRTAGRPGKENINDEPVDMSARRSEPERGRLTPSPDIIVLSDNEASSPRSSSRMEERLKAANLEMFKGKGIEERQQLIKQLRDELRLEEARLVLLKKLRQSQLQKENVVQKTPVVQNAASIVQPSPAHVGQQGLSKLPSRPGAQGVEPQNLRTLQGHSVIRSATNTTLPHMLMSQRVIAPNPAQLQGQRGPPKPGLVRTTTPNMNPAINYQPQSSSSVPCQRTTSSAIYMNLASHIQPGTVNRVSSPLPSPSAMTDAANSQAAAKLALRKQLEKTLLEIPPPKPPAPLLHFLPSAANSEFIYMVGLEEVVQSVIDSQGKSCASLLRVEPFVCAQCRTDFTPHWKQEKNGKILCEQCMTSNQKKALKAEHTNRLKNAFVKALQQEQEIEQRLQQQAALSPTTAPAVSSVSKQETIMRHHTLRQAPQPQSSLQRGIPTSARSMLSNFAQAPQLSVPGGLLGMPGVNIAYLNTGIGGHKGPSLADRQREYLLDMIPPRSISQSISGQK

| SMILES | reduction in C10/11 and C359 in MBD2, C266 in MBD3, and C308 of GATAD2B (cysteine reactivity profiles) [1] [%] | apparent reactivity of C308 of GATAD2B [2] |
| --- | --- | --- |
| C=CC(=O)N(Cc1cccc(Cl)n1)c1ccc(C(=O)Nc2ccccc2)nc1 [BPK-25] | ~50 | – |
| COC(=O)/C=C/C(=O)OC [DMF, reference compound] | – | decreased the apparent reactivity |
